Here are results for 2 compounds from US20130317046A1, “USE OF A DPP-4 INHIBITOR IN AUTOIMMUNE DIABETES, PARTICULARLY LADA” (BOEHRINGER INGELHEIM INTERNATIONAL GMBH, priority 2012, published 2013).

Data set [1] in a line: 2 h postprandial blood glucose excursions in patients with type 2 diabetes. It counts as in vivo, human. The note with it: Day 1, doses ≧2.5 mg.
In another data set the test system is β-cell function. Put plainly: Fasting C-peptide (β-cell function) in GAD65+ LADA patients, two year double-blind randomized study linagliptin versus glimepiride on metformin. It counts as in vivo, human. Details: Follow-up C-peptide / ΔC-peptide / Baseline C-peptide: unit not given here. The note with it: for Follow-up C-peptide / ΔC-peptide / Baseline C-peptide: fasting, GAD+ patients; for Follow-up C-peptide: 52 weeks; for Follow-up C-peptide / Baseline C-peptide: lina 5 mg/d, glim 1-4 mg/d, on metformin. Here is the method: (§1) β-Cell function in latent autoimmune diabetes in adults (LADA) treated with linagliptin versus glimepiride: exploratory results from a two year double-blind, randomized, controlled study:
(§2) It is compared the impact of treatment with the DPP4-inhibitor linagliptin (lina) 5 mg/d and the sulphonylurea glimepiride (glim) 1-4 mg/d on β-cell function in patients retrospectively identified with LADA who had insufficient glycaemic control despite metformin therapy in a two year study.
(§3) Patients were classified as LADA if one or more of the autoantibodies assessed (GAD65, ICA, IA-2A, IAA) were present at baseline or any on-treatment visit. GAD was assessed using RIA methodology (cut-off 0.05 [sensitivity 82%/specificity 98.89% in the Diabetes Autoantibody Standardization Program 2010]).
(§4) The study cohort comprised 1519 patients (16 countries), with assumed common T2D. The prevalence of LADA was 7.8% (n=118). GAD65 was the most prevalent autoantibody (6.5%) whereas ICA (0.3%), IA-2A (1.2%) and IAA (0.2%) were rare. Proportion of patients with 2 positive antibodies was 0.4%. Baseline characteristics in GAD65+LADA patients treated with lina (n=65) or glim (n=53) were fairly well balanced (respective age 59/63 yrs, BMI 30.3/31.7 kg/m2 and diabetes duration >5 years 62%/59%).
(§5) HbA1c reductions were of similar magnitude in the groups.

The nature of data set [2]: HbA1c in GAD65+ LADA patients, two year double-blind randomized study linagliptin versus glimepiride on metformin. The format is in vivo, human. The note with it: GAD+ patients. Here is the method: as §1, §2, §3, §4, §5
Data set [3] is described as follows: Safety and tolerability in people with type 2 diabetes.
Data set [4] in a line: Pharmacokinetics of BI 1356 after multiple oral doses once daily for 12 days in patients with type 2 diabetes. The note with it: for feT,ss: steady state (Day 12); for feT,ss / fe0-24: gMean; for fe0-24: fraction excreted in urine.
The mark [5] stands for this setting: change from baseline at 28 weeks.
The mark [6] stands for this setting: change from baseline at 52 weeks.
Where [7] appears, read: change from baseline at 104 weeks.

Marks after values point to notes of the source that are not given here.

Consider `CC#CCn1c(N2CCC[C@@H](N)C2)nc2c1c(=O)n(Cc1nc(C)c3ccccc3n1)c(=O)n2C` [BI 1356, 1-[(4-methyl-quinazolin-2-yl)methyl]-3-methyl-7-(2-butyn-1-yl)-8-(3-(R)-amino-piperidin-1-yl)-xanthine], for which the “decrease in 2 h postprandial blood glucose excursions” value in data set [1] is listed as 80%. The “preservation of C-peptide” value in the data set on β-cell function (GAD65+ patients, over a 2 yr trajectory, versus glim) is given as “preserved C-peptide significantly better than those treated with glim”. Also, the “Follow-up C-peptide” value in the data set on β-cell function came to 978. The ΔC-peptide entry was “+96***##” in the data set on β-cell function (setting [5]), “+143***##” in the data set with β-cell function (setting [6]) and “+202***” in the data set with β-cell function (setting [7]). Moreover, the “Baseline C-peptide” value in the data set with β-cell function (subset followed to 28 weeks) is reported as 821; in the data set on β-cell function (subset followed to 52 weeks) it was 835; with β-cell function (subset followed to 104 weeks) it was 944. Moreover, the ΔHbA1c in data set [2] (setting [5]) is recorded as −0.25%; in data set [2] (setting [6]), −0.49%; in data set [2] (setting [7]) it was −0.41%. Moreover, the “Baseline HbA1c” value was found to be 7.62% in data set [2] (subset followed to 28 weeks), 7.50% in data set [2] (subset followed to 52 weeks) and 7.40% in data set [2] (subset followed to 104 weeks). In addition, the safety and tolerability entry in data set [3] is “placebo-like safety and tolerability”. The “feT,ss” value amounted to 3.34% in data set [4] (1 mg oral once daily), 3.06% in data set [4] (2.5 mg oral once daily), 6.27% in data set [4] (5 mg oral once daily) and 3.22% in data set [4] (10 mg oral once daily). Besides, the fe0-24 amounted to 0.139% in data set [4] (2.5 mg oral once daily), 0.453% in data set [4] (5 mg oral once daily) and 0.919% in data set [4] (10 mg oral once daily). Moreover, in data set [4] (doses above 1 mg), the “mean accumulation ratio RA,AUC” value was at most 1.4. Moreover, the “form and route of excretion” value in data set [4] (human, in vivo) is “primarily excreted unchanged via the bile”. Besides, the “excreted via the kidney” value in data set [4] (therapeutic oral dose levels) was < 7 % of the administered oral dose. In data set [4] (therapeutic oral dose levels), the “main route of excretion” value is given as “mainly excreted via the liver”.

`CCC1=C(C)CN(C(=O)NCCc2ccc(S(=O)(=O)NC(=O)N[C@H]3CC[C@H](C)CC3)cc2)C1=O` [Glim, glimepiride, reference compound]: in the data set with β-cell function, the “Follow-up C-peptide” value is recorded as 1246. Further, the ΔC-peptide is −105 with β-cell function (setting [5]), −179 with β-cell function (setting [6]) and −29 with β-cell function (setting [7]). Besides, the “Baseline C-peptide” value stood at 1326 in the data set with β-cell function (subset followed to 28 weeks), 1425 in the data set on β-cell function (subset followed to 52 weeks) and 1374 in the data set on β-cell function (subset followed to 104 weeks). Moreover, the ΔHbA1c in data set [2] (setting [5]) is recorded as −0.75%; in data set [2] (setting [6]), −0.52%; in data set [2] (setting [7]), −0.49%. Besides, the figures for the “Baseline HbA1c” value in data set [2] (subset followed to 28 weeks), in data set [2] (subset followed to 52 weeks) and in data set [2] (subset followed to 104 weeks) were 7.75%, 7.46% and 7.40%, respectively.
